Source: PMC7217877, “N-AS-triggered SPMs are direct regulators of microglia in a model of Alzheimer’s disease” (Nature Communications, 2020)
Values joined by “and” are separate entries in the source; they are usually repeats but may differ in a detail not shown here. Equal values may be shown once.

Assays:
[1] = tested on: immortalized human microglia; experiment: N-AS generation in human microglia (LC-MS/MS, Supplementary Fig 6a); assay type: cell-based
Experimental: (§1) Reactions were quenched by adding equal volume of cold methanol. A 100 μl aliquot of the reaction mixture was mixed with 30 μl of distilled water containing 5 ng ml^−1 of furosemide (internal standard) for 1 min and vigorously mixed with […] of ethyl acetate for 20 min. After centrifugation at 16,000×g for 10 min, the mixtures were kept for 2 h for freezing aqueous phase. The upper ethyl acetate layer was transferred to a clean tube and evaporated to dryness under a gentle stream of nitrogen. Then, the dried extract was reconstituted in 100 µl of mobile phase and 10 µl aliquot of the solution was injected into an Agilent 6470 Triple Quad LC–MS/MS system (Agilent, Wilmington, DE) coupled with an Agilent 1260 HPLC system. Separation was performed on a Synergy Polar RP column (4 μm particle size, 2.0 mm × 150 mm, Phenomenex) using a mobile phase that consisted of methanol and water (95:5, v/v) with 0.1% formic acid at a flow rate of 0.2 ml min^−1. Quantification was carried out using multiple reaction monitoring (MRM) at m/z 340.3→263.3 for N-AS and m/z 328.9→284.8 for furosemide (internal standard) in negative ionization mode and collision energy of 20 eV. […] Also, to confirm N-AS generation in neurons, microglia, and astrocytes, these cells were treated with Aβ, and sonicated in neuronal and glial culture medium. […] To evaluate N-AS in microglia and neurons in vivo, the cells were isolated from WT mice, APP/PS1 mice and APP/PS1 mice treated with N-AS at 9 months of age. The cells were sonicated and resuspended in glial and neuronal culture medium, respectively. A 100 μl aliquot of each cell lysate were used for the determination of N-AS using a method previously described.
(§2) To confirm the generation and roles of N-AS in neurons, cells from E18 C57BL/6 mice were prepared as previously described. Cortices were dissected and then dissociated followed by incubation in papain (Worthington) at 37 °C for 15 min. […] Aβ 1–42 (10 μM, 24 h, Invitrogen, 03112) was exposed to neurons and the cells were analyzed for the generation and roles of N-AS. […]

neuron = experiment: N-AS generation in primary cultured cells (LC-MS/MS); assay type: cell-based, C57BL/6 mice; parameters: N-AS quantification (Fig 3a): dose or concentration left out as unconfirmed; conditions: replicates
Experimental: as §1, §2

Row | Compound | N-AS generation in human microglia ([1]; Ab 50mM + Acetyl CoA 100mM, sFig 6a) | N-AS generation, acetyl-S565 COX2 and SPM secretion, in words ([1]; Aβ-treated human microglia + acetyl-CoA) | N-AS quantification (Fig 3g) (neuron; Ab + supplement) | N-AS generation, in words ([1]; Aβ-treated human microglia) | N-AS quantification (Fig 3g) (neuron; Ab, no supplement) | N-AS quantification (Fig 3a) (neuron; Ab)
1 | CC(=O)SCCNC(=O)CCNC(=O)[C@H](O)C(C)(C)COP(=O)(O)OP(=O)(O)OC[C@H]1O[C@@H](n2cnc3c(N)ncnc32)[C@H](O)[C@@H]1OP(=O)(O)O [Acetyl-CoA, acetyl-CoA] | 10.5625 and 12.1817 and 11.3721 and 11.7769 | restored | 0.4129 and 0.455 and 0.2582 and 0.5811 and 0.497 |  |  | 
2 | Ab: Aβ 1–42 (Invitrogen, 03112) used to induce an AD environment in cells |  |  |  | reduction of N-AS generation | 0.5069 and 0.4708 and 0.3905 and 0.3625 and 0.4347 | 0.5349 and 0.246 and 0.4789 and 0.3905 and 0.3625 and 0.4347
